The record followed here is patent US20220402900A1, “1,2,4-OXADIAZOL-5-ONE DERIVATIVES FOR THE TREATMENT OF CANCER” (Basilea Pharmaceutica International AG, priority 2019, published 2022).

Experiment [1] addresses T1, human TEAD2 (amino acids 217-447) (Homo sapiens, UniProt Q15562).
T1 construct: human TEAD2 (amino acids 217-447); His-tag (N); purchased Proteros biostructures PR-0365; host or cells: E. coli
In words: Thermal shift assay (TSA). The format is binding. The settings on record: 3 μM recombinant TEAD2, compound 7 μM, shift vs DMSO control. The procedure: The thermal shift assay (TSA) was utilized to characterize target engagement in vitro based on ligand-dependent thermal stabilization of the protein. N-terminally His-tagged human TEAD2 (amino acids 217-447) expressed and purified from E. coli was purchased from Proteros biostructures (cat no. PR-0365). The melting reactions were performed in white, 96 well qPCR plates (Roche Diagnostics, cat. no. 04 729 692 001) in 20 mM HEPES pH 7, 100 mM NaCl in the presence of 4×SYPRO orange (Sigma, cat. no. S5692). Each well contained 3 μM recombinant TEAD2 and either DMSO (control) or experimental compounds at a final concentration of 7 μM. The total volume was 20 μL and the final DMSO concentration was 1%. The plate was sealed and analyzed in a LightCycler 480 II (Roche Diagnostics) by continuously reading the fluorescence using the 465-580 nm filter set while heating from 25° C. to 95° C. using a linear gradient of 1° C./min. Melting temperatures were determined by numerical differentiation using the LightCycler Thermal Shift Analysis software (Roche Diagnostics). The shifts in melting temperature caused by experimental compounds compared to the control are expressed as ΔTm (Table 2).

The test system of experiment [2] is TEAD reporter gene activity. In words: TEAD reporter gene assay (MCF7 TEAD reporter cell line). The following applies: Homo sapiens; TEAD luciferase reporter in MCF7 cells, 24 hours; read-out: IC50 TEAD RGA (converted). The class given is cell-based. The text has this: A TEAD reporter cell line was purchased from BPS Bioscience (cat. no. 60618). It contains the firefly luciferase gene under control of TEAD responsive elements stably integrated into the human breast cancer MCF7 cells. In proliferating cells, a basal level of unphosphorylated YAP/TAZ resides in the nucleus and drives the TEAD-dependent expression of the luciferase reporter. The cells were cultivated as recommended by the supplier. Inhibition of TEAD reporter gene activity by experimental compounds was measured using white, clear-bottom, 96 well cell culture plates (Greiner Bio-One, cat. no. 655098). The cells were seeded at a density of 20,000 cells per well in 100 μL growth medium and the plates were incubated overnight at 37° C. with 5% CO2 prior to treatment. Experimental compounds were serially diluted in DMSO to 200× the desired final concentrations. 0.5 μL aliquots of DMSO or the test samples were then mixed into the wells and the cells were further incubated for 24 hours. Luminescence was then measured on a Synergy 4 reader (BioTek) using the ONE-Glo Luciferase Assay System (Promega, cat. no. E6120) according to the manufacturer's instructions. Relative inhibition values were calculated by normalizing the raw data using DMSO-treated cells (0% inhibition) and wells devoid of cells (100% inhibition). IC50 values were calculated by fitting concentration-response data to a sigmoidal 4-parameter logistic model.

T1 sequence (Q15562 217-447): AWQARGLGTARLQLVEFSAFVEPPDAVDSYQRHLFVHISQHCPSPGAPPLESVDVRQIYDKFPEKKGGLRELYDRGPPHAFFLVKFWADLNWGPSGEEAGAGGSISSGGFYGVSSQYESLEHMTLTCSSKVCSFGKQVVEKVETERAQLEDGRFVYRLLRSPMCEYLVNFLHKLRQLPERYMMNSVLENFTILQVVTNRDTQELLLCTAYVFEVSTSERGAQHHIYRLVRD

`CCc1ccc(Nc2nccnc2-c2noc(=O)[nH]2)cc1` [Example 17, 3-[3-(4-ethylanilino)pyrazin-2-yl]-4H-1,2,4-oxadiazol-5-one]: the ΔTm at 7 µM in experiment [1] was 8.7 °C. Besides, in experiment [2], the IC50 was 0.708 µM.
As to `O=c1[nH]c(-c2nccnc2Nc2ccc(-c3nccs3)cc2)no1` [Example 18, 3-[3-(4-thiazol-2-ylanilino)pyrazin-2-yl]-4H-1,2,4-oxadiazol-5-one], the ΔTm at 7 µM in experiment [1] turned out to be 2.5 °C. Besides, the IC50 in experiment [2] was 0.828 µM.
Consider `O=c1[nH]c(-c2nccnc2Nc2ccc(C(F)(F)F)c(F)c2)no1` [Example 19, 3-[3-[3-fluoro-4-(trifluoromethyl)anilino]pyrazin-2-yl]-4H-1,2,4-oxadiazol-5-one], for which the ΔTm at 7 µM in experiment [1] was found to be 10.1 °C. Also, in experiment [2], the IC50 is 0.131 µM.
With `O=c1[nH]c(-c2nccnc2Nc2ccc(C(F)(F)F)c(Cl)c2)no1` [Example 20, 3-[3-[3-chloro-4-(trifluoromethyl)anilino]pyrazin-2-yl]-4H-1,2,4-oxadiazol-5-one], the thermal shift (ΔTm) at 7 µM in experiment [1] was 10.6 °C. Besides, the IC50 in experiment [2] is 0.236 µM.
For the compound `COc1cc(C(F)(F)F)ccc1Nc1nccnc1-c1noc(=O)[nH]1` [Example 21, 3-[3-[2-methoxy-4-(trifluoromethyl)anilino]pyrazin-2-yl]-4H-1,2,4-oxadiazol-5-one], the ΔTm at 7 µM in experiment [1] came to 2.1 °C. The half-inhibitory concentration (IC50) in experiment [2] is 0.102 µM.
As for `COc1cc(Nc2nccnc2-c2noc(=O)[nH]2)ccc1C(F)(F)F` [Example 22, 3-[3-[3-methoxy-4-(trifluoromethyl)anilino]pyrazin-2-yl]-4H-1,2,4-oxadiazol-5-one], the thermal shift (ΔTm) at 7 µM in experiment [1] was found to be 6.1 °C. Further, the IC50 in experiment [2] is 0.07 µM.
On to `O=c1[nH]c(-c2nccnc2Nc2cnc(C(F)(F)F)nc2)no1` [Example 23, 3-[3-[[2-(trifluoromethyl)pyrimidin-5-yl]amino]pyrazin-2-yl]-4H-1,2,4-oxadiazol-5-one], for which, in experiment [1], the ΔTm at 7 µM came out at 1.6 °C. In addition, the IC50 in experiment [2] is 0.064 µM.
As to `O=c1[nH]c(-c2nccnc2Nc2ccc(C(F)(F)F)nc2)no1` [Example 24, 3-[3-[[6-(trifluoromethyl)-3-pyridyl]amino]pyrazin-2-yl]-4H-1,2,4-oxadiazol-5-one], the ΔTm at 7 µM in experiment [1] was 3.4 °C. The IC50 in experiment [2] was 0.34 µM.
As for `O=c1[nH]c(-c2nccnc2Nc2ccc(C(F)(F)F)cc2F)no1` [Example 25], in experiment [1], the ΔTm at 7 µM turned out to be 9.6 °C. In experiment [2], the IC50 is 0.117 µM.
On the same counts, the results for `Cc1cc(C)c(-c2noc(=O)[nH]2)c(Nc2ccc(C(F)(F)F)cc2)n1` [Example 26, 3-[4,6-dimethyl-2-[4-(trifluoromethyl)anilino]-3-pyridyl]-4H-1,2,4-oxadiazol-5-one] are 9.2 °C and 0.433 µM.
Regarding `O=C(Nc1ccc(Nc2nccnc2-c2noc(=O)[nH]2)cc1)C1CCC1` [Example 27, N-[4-[[3-(5-oxo-4H-1,2,4-oxadiazol-3-yl)pyrazin-2-yl]amino]phenyl]cyclobutanecarboxamide], the shift in melting temperature (ΔTm) at 7 µM in experiment [1] worked out at 0.4 °C. In addition, the IC50 in experiment [2] was 1.54 µM.
On the same counts, the results for `Cc1ccnc(Nc2ccc(C(F)(F)F)cc2)c1-c1noc(=O)[nH]1` [Example 28, 3-[4-methyl-2-[4-(trifluoromethyl)anilino]-3-pyridyl]-4H-1,2,4-oxadiazol-5-one] are 6.1 °C and 0.557 µM.
As for `O=c1[nH]c(-c2nccnc2Nc2ccc(-c3ccccc3)cc2)no1` [Example 29, 3-[3-(4-phenylanilino)pyrazin-2-yl]-4H-1,2,4-oxadiazol-5-one], the shift in melting temperature (ΔTm) at 7 µM in experiment [1] amounted to 7.3 °C. Besides, the IC50 in experiment [2] is 0.503 µM.
On to `O=c1[nH]c(-c2nccnc2Nc2ccc(Cl)c(C(F)(F)F)c2)no1` [Example 30, 3-[3-[4-chloro-3-(trifluoromethyl)anilino]pyrazin-2-yl]-4H-1,2,4-oxadiazol-5-one], for which the shift in melting temperature (ΔTm) at 7 µM in experiment [1] was found to be 5.3 °C. For the same compound, the concentration for half-maximal inhibition (IC50) in experiment [2] was 4.91 µM.
On to `Cc1cnc(-c2noc(=O)[nH]2)c(Nc2ccc(C(F)(F)F)cc2)n1` [Example 31, 3-[5-methyl-3-[4-(trifluoromethyl)anilino]pyrazin-2-yl]-4H-1,2,4-oxadiazol-5-one], for which, in experiment [1], the thermal shift (ΔTm) at 7 µM is 10.5 °C. The IC50 in experiment [2] is 0.035 µM.
Taken in the same sequence, the figures for `Cc1cnc(Nc2ccc(C(F)(F)F)cc2)c(-c2noc(=O)[nH]2)n1` [Example 32, 3-[6-methyl-3-[4-(trifluoromethyl)anilino]pyrazin-2-yl]-4H-1,2,4-oxadiazol-5-one] were 10.2 °C and 0.028 µM.
On to `Nc1cc(Nc2nccnc2-c2noc(=O)[nH]2)ccc1C(F)(F)F` [Example 33, 3-[3-[3-amino-4-(trifluoromethyl)anilino]pyrazin-2-yl]-4H-1,2,4-oxadiazol-5-one], for which the ΔTm at 7 µM in experiment [1] was 3.6 °C. Further, in experiment [2], the concentration for half-maximal inhibition (IC50) is 0.127 µM.
Take `Nc1cc(C(F)(F)F)ccc1Nc1nccnc1-c1noc(=O)[nH]1` [Example 34, 3-[3-[2-amino-4-(trifluoromethyl)anilino]pyrazin-2-yl]-4H-1,2,4-oxadiazol-5-one]: the ΔTm at 7 µM in experiment [1] worked out at 0.4 °C. For the same compound, the half-inhibitory concentration (IC50) in experiment [2] was 2.12 µM.
On the same counts, the results for `CC(=O)Nc1cnc(Nc2ccc(C(F)(F)F)cc2)c(-c2noc(=O)[nH]2)n1` [Example 35, N-[6-(5-oxo-4H-1,2,4-oxadiazol-3-yl)-5-[4-(trifluoromethyl)anilino]pyrazin-2-yl]acetamide] are 2.5 °C and 3.83 µM.
For the compound `Nc1cnc(-c2noc(=O)[nH]2)c(Nc2ccc(C(F)(F)F)cc2)n1` [Example 36, 3-[5-amino-3-[4-(trifluoromethyl)anilino]pyrazin-2-yl]-4H-1,2,4-oxadiazol-5-one], in experiment [1], the shift in melting temperature (ΔTm) at 7 µM came to 3.5 °C. Also, the IC50 in experiment [2] is 0.149 µM.
Take `O=c1[nH]c(-c2nc3ccccc3nc2Nc2ccc(C(F)(F)F)cc2)no1` [Example 37, 3-[3-[4-(trifluoromethyl)anilino]quinoxalin-2-yl]-4H-1,2,4-oxadiazol-5-one]: the thermal shift (ΔTm) at 7 µM in experiment [1] is 12.1 °C. In addition, in experiment [2], the IC50 was 0.188 µM.
For the compound `O=c1[nH]c(-c2ccccc2Nc2ccc(C(F)(F)F)cc2)no1` [Example 38, 3-[2-[4-(trifluoromethyl)anilino]phenyl]-4H-1,2,4-oxadiazol-5-one], the ΔTm at 7 µM in experiment [1] was determined as 12.6 °C. The IC50 in experiment [2] was 0.039 µM.
`O=c1[nH]c(-c2nccnc2Nc2ccc(C3CC3)cc2)no1` [Example 39, 3-[3-(4-cyclopropylanilino)pyrazin-2-yl]-4H-1,2,4-oxadiazol-5-one]: the ΔTm at 7 µM in experiment [1] was 9.3 °C. Further, the IC50 in experiment [2] is 2.82 µM.
As to `O=c1[nH]c(-c2nccnc2Nc2ccc(C3(C(F)(F)F)CC3)cc2)no1` [Example 40, 3-[3-[4-[1-(trifluoromethyl)cyclopropyl]anilino]pyrazin-2-yl]-4H-1,2,4-oxadiazol-5-one], the ΔTm at 7 µM in experiment [1] came out at 13.4 °C. Besides, the concentration for half-maximal inhibition (IC50) in experiment [2] is 0.109 µM.
Taken in the same sequence, the figures for `O=c1[nH]c(-c2nccnc2Nc2ccc(C3CCC3)cc2)no1` [Example 41, 3-[3-(4-cyclobutylanilino)pyrazin-2-yl]-4H-1,2,4-oxadiazol-5-one] were 12.5 °C and 6.57 µM.
For the compound `N#CC1(c2ccc(Nc3nccnc3-c3noc(=O)[nH]3)cc2)CCC1` [Example 42, 1-[4-[[3-(5-oxo-4H-1,2,4-oxadiazol-3-yl)pyrazin-2-yl]amino]phenyl]cyclobutanecarbonitrile], the shift in melting temperature (ΔTm) at 7 µM in experiment [1] came out at 5.3 °C. For the same compound, the IC50 in experiment [2] was 0.711 µM.
On the same counts, the results for `O=c1[nH]c(-c2nccnc2Nc2ccc(Cl)cc2)no1` [Example 43, 3-[3-(4-chloroanilino)pyrazin-2-yl]-4H-1,2,4-oxadiazol-5-one] are 6.6 °C and 0.93 µM.
`O=c1[nH]c(-c2cc(Cl)cnc2Nc2ccc(C(F)(F)F)cc2)no1` [Example 44, 3-[5-chloro-2-[4-(trifluoromethyl)anilino]-3-pyridyl]-4H-1,2,4-oxadiazol-5-one]: the shift in melting temperature (ΔTm) at 7 µM in experiment [1] is 11.6 °C. In addition, the IC50 in experiment [2] was 0.225 µM.
With `Nc1cnc(Nc2ccc(C(F)(F)F)cc2)c(-c2noc(=O)[nH]2)c1` [Example 45, 3-[5-amino-2-[4-(trifluoromethyl)anilino]-3-pyridyl]-4H-1,2,4-oxadiazol-5-one], in experiment [1], the thermal shift (ΔTm) at 7 µM was found to be 6 °C. Besides, the IC50 in experiment [2] is 1.35 µM.

The ΔTm is the change in melting temperature against a reference sample. The IC50 is the point on the concentration scale where inhibition reaches its midpoint.
